# Data: patent US11390622B2, “Pyrimido-isoquinolin-quinone derivative compounds, and pharmaceutically acceptable salts, isomers and tautomers thereof; pharmaceutical composition; preparation method; and use thereof in the treatment of diseases caused by bacteria and multidrug-resistant bacteria” (Universidad de Chile, priority 2015, dated 2022)
# Read-outs that look alike come from different tables or passages of the source.
# Tests used:
# [1] = test system: Methicillin sensitive Staphylococcus aureus ATCC 29213; assay: CIM antibacterial activity screening (broth microdilution); assay type: cell-based
# Protocol: (§1) These compounds were tested for their in vitro activity (Screening Antibacterial Activity CIM (μg/mL)) and the results are shown in Table II.
# (§2) Bacteria used: A panel of prototype strains was used to screen for antibacterial activity in the compounds: • Methicillin-resistant Staphylococcus aureus ATCC© 43300. • Methicillin-sensitive Staphylococcus aureus ATCC© 29213. • Enterococcus faecalis ATCC© 29212. • Escherichia coli ATCC© 25922. • Pseudomonas aeruginosa ATCC© 27853.
# (§3) The strains were planted from the ceparium (where they were preserved in 50% v/v glycerol and Brain Heart Infusion culture broth, at −20° C.) in Mueller-Hinton agar (Oxoid, England).
# (§4) The concentrations to be tested ranged from 32 to 0.0625 μg/mL. The wells in columns 11 and 12 were used for positive growth control and sterility control respectively.
# (§5) Once the plate was prepared, 100 uL of the bacterial suspension to be tested were added, previously adjusted to 0.5 Mc Farland, in each of the wells, excluding the wells in column 12. Finally, the plates were covered and incubated at 36° C. for 18 to 24 hours. Then, the plates were observed using contrast light to determine the concentration at which bacterial growth is inhibited (indicated by the disappearance of turbidity).
# (§6) All trials were conducted three times, and results were considered valid if the internal controls of each plate (growth and sterility controls) were adequate. MIC antibiotic control (ciprofloxacin, gentamicin and vancomycin) was assessed and contrasted with the permitted quality control ranges given by CLSI. If the MIC detected in the trial was within the permitted ranges, the trial was accepted as valid.
# [2] = test system: Methicillin resistant Staphylococcus aureus ATCC 43300; assay: as above; assay type: cell-based
# Protocol: as §1, §2, §3, §4, §5, §6
# [3] = test system: Pseudomona aeruginosa ATCC 27853; assay: as above; assay type: cell-based; conditions: Pseudomonas aeruginosa
# Protocol: as §1, §2, §3, §4, §5, §6
# [4] = test system: Eschericha coli ATCC 25922; assay: as above; assay type: cell-based; conditions: Escherichia coli
# Protocol: as §1, §2, §3, §4, §5, §6
# [5] = test system: Enterococcus faecalis ATCC 29212; assay: as above; assay type: cell-based
# Protocol: as §1, §2, §3, §4, §5, §6
# [6] = ATCC29213, Methicillin sensitive Staphylococcus aureus ATCC 29213, read-out: CIM
# [7] = ATCC43300, Methicillin resistant Staphylococcus aureus ATCC 43300, read-out: CIM
# [8] = ATCC27853, Pseudomona aeruginosa ATCC 27853, read-out: CIM
# [9] = ATCC25922, Eschericha coli ATCC 25922, read-out: CIM
# [10] = ATCC29212, Enterococcus faecalis ATCC 29212, read-out: CIM
# [11] = Staphylococcus aureus, ATCC29213, read-out: CIM
# [12] = Staphylococcus aureus, ATCC43300, read-out: CIM
# [13] = Enterococcus faecalis, ATCC29212, read-out: CIM
Structure (SMILES),"MIC [1, 6] [µg/mL]","MIC [2, 7] [µg/mL]","MIC [3, 8] [µg/mL]","MIC [4, 9] [µg/mL]","MIC [5, 10] [µg/mL]",melting point [°C],"MIC [1, 11] [µg/mL]","MIC [2, 12] [µg/mL]","MIC ([3]; ATCC27853, read-out: CIM) [µg/mL]","MIC ([4]; ATCC25922, read-out: CIM) [µg/mL]","MIC [5, 13] [µg/mL]"
"CCc1nc2c(c3c1C(=O)C=CC3=O)c(=O)n(C)c(=O)n2C [Molecule 1, 6-ethyl-2,4-dimethylpyrimido[4,5-c]isoquinoline-1,3,7,10(2H,4H)-tetraone]",≥ 32,≥ 32,> 32,> 32,> 32,167.6 to 167.9,–,–,–,–,–
"CCc1nc2c(c3c1C(=O)C(Sc1ccccc1)=CC3=O)c(=O)n(C)c(=O)n2C [Molecule 2, 6-ethyl-2,4-dimethyl-8-(phenythio)pyrimido[4,5-c]isoquinoline-1,3,7,10(2H,4H)-tetraone]",–,–,–,–,–,179.4 to 180,8,8,≥ 32,≥ 32,8
"CCc1nc2c(c3c1C(=O)C(Sc1ccccc1C)=CC3=O)c(=O)n(C)c(=O)n2C [Molecule 3, 6-ethyl-2,4-dimethyl-8-(o-tolylthio)pyrimido[4,5-c]isoquinoline-1,3,7,10(2H,4H)-tetraone]",32,32,≥ 32,≥ 32,≥ 32,206 to 210.9,–,–,–,–,–
"CCc1nc2c(c3c1C(=O)C(Sc1ccccc1F)=CC3=O)c(=O)n(C)c(=O)n2C [Molecule 5, 6-ethyl-8-((2-fluorophenyl)thio)-2,4-dimethyl pyrimido[4,5-c]isoquinoline-1,3,7,10(2H, 4H)-tetraone]",≥ 32,≥ 32,≥ 32,≥ 32,≥ 32,–,–,–,–,–,–
"CCc1nc2c(c3c1C(=O)C(Sc1ccccc1Cl)=CC3=O)c(=O)n(C)c(=O)n2C [Molecule 6, 8-((2-chlorophenyl)thio)-6-ethyl-2,4-dimethyl pyrimido[4,5-c]isoquinoline-1,3,7,10(2H,4H)-tetraone]",–,–,–,–,–,–,≥ 32,≥ 32,≥ 32,≥ 32,≥ 32
"CCc1nc2c(c3c1C(=O)C(Sc1cccc(Cl)c1)=CC3=O)c(=O)n(C)c(=O)n2C [Molecule 11, 8-(3-chlorothiophenyl)-6-ethyl-2,4-dimethylpyrimido[4,5-c]isoquinoline-1,3,7,10(2H,4H)-tetraone]",32,2,≥ 32,≥ 32,4,156.1 to 157.1,–,–,–,–,–
"CCc1nc2c(c3c1C(=O)C(Sc1cccc(Br)c1)=CC3=O)c(=O)n(C)c(=O)n2C [Molecule 12, 8-(3-bromothiophenyl)-6-ethyl-2,4-dimethylpyrimido[4,5-c]isoquinoline-1,3,7,10(2, 4H)-tetraone]",32,2,≥ 32,≥ 32,4,138.3 to 139.3,–,–,–,–,–
"CCc1nc2c(c3c1C(=O)C(Sc1ccc(Cl)cc1)=CC3=O)c(=O)n(C)c(=O)n2C [Molecule 16, 8-(4-chlorothiophenyl)-6-ethyl-2,4-dimethylpyrimido[4,5-c]isoquinoline-1,3,7,10(2H, 4H)-tetraone]",–,–,–,–,–,196.5 to 198.3,4,4,≥ 32,≥ 32,4

# Further compounds by falling MIC [1, 6], results first:
"MIC [1, 6] [µg/mL]","MIC [2, 7] [µg/mL]","MIC [3, 8] [µg/mL]","MIC [4, 9] [µg/mL]","MIC [5, 10] [µg/mL]",melting point [°C],Structure (SMILES),"MIC [1, 11] [µg/mL]","MIC [2, 12] [µg/mL]","MIC ([3]; ATCC27853, read-out: CIM) [µg/mL]","MIC ([4]; ATCC25922, read-out: CIM) [µg/mL]","MIC [5, 13] [µg/mL]"
16,16,≥ 32,≥ 32,16,198.9 to 201.5,"CCc1nc2c(c3c1C(=O)C(Sc1ccc(OC)cc1)=CC3=O)c(=O)n(C)c(=O)n2C [Molecule 14, 6-ethyl-8-(4-methoxythiophenyl)-2,4-dimethylpyrimido[4,5-c]isoquinoline-1,3,7,10(2H,4H)-tetraone]",–,–,–,–,–
8,4,≥ 32,≥ 32,4,179.5 to 180.5,"CCc1nc2c(c3c1C(=O)C(Sc1cccc(OC)c1)=CC3=O)c(=O)n(C)c(=O)n2C [Molecule 9, 6-ethyl-8-(3-methoxythiophenyl)-2,4-dimethylpyrimido[4,5-c]isoquinoline-1,3,7,10(2H,4H)-tetraone]",–,–,–,–,–
8,8,≥ 32,≥ 32,8,194.9 to 195.4,"CCc1nc2c(c3c1C(=O)C(Sc1ccc(F)cc1)=CC3=O)c(=O)n(C)c(=O)n2C [Molecule 15, 6-ethyl-8-(4-fluorothiophenyl)-2,4-dimethylpyrimido[4,5-c]isoquinoline-1,3,7,10(2H, 4H)-tetraone]",–,–,–,–,–
8,4,≥ 32,≥ 32,8,197.9 to 198.7,"CCc1nc2c(c3c1C(=O)C(Sc1ccc(Br)cc1)=CC3=O)c(=O)n(C)c(=O)n2C [Molecule 17, 8-(4-bromothiophenyl)-6-ethyl-2,4-dimethylpyrimido[4,5-c]isoquinoline-1,3,7,10(2H,4H)-tetraone]",–,–,–,–,–
4,2,≥ 32,≥ 32,4,–,"CCc1nc2c(c3c1C(=O)C(Sc1ccccc1OC)=CC3=O)c(=O)n(C)c(=O)n2C [Molecule 4, 6-ethyl-8-(2-methoxyphenylthio)-2,4-dimethyl pyrimido[4,5-c]isoquinoline-1,3,7,10(2H,4H)-tetraone]",–,–,–,–,–
4,1,≥ 32,≥ 32,2,–,"CCc1nc2c(c3c1C(=O)C(Sc1ccccc1Br)=CC3=O)c(=O)n(C)c(=O)n2C [Molecule 7, 8-((2-bromophenyl)thio)-6-ethyl-2,4-dimethylpyrimido[4,5-c]isoquinoline-1,3,7,10(2H,4H)-tetraone]",–,–,–,–,–
4,4,≥ 32,≥ 32,4,162 to 163,"CCc1nc2c(c3c1C(=O)C(Sc1cccc(C)c1)=CC3=O)c(=O)n(C)c(=O)n2C [Molecule 8, 6-ethyl-2,4-dimethyl-8-(m-tolylthio)pyrimido[4,5c]isoquinoline-1,3,7,10(2H,4H)-tetraone]",–,–,–,–,–
4,4,≥ 32,≥ 32,8,170 to 171,"CCc1nc2c(c3c1C(=O)C(Sc1cccc(F)c1)=CC3=O)c(=O)n(C)c(=O)n2C [Molecule 10, 6-ethyl-8-(3-fluorothiophenyl)-2,4-dimethylpyrimido[4,5-c]isoquinoline-1,3,7,10(2H,4H)-tetraone]",–,–,–,–,–
4,4,≥ 32,≥ 32,16,191 to 192.3,"CCc1nc2c(c3c1C(=O)C(Sc1ccc(C)cc1)=CC3=O)c(=O)n(C)c(=O)n2C [Molecule 13, 6-ethyl-2,4-dimethyl-8-(p-tolylthio)pyrimido[4,5-c]isoquinoline-1,3,7,10(2H,4H)-tetraone]",–,–,–,–,–
